The values below come from patent publication US12310954B2, “Salivary gland regeneration” (The Regents of the University of California, priority 2018, dated 2025).

For series [1] the following is noted: long term oral use in patients; cited from earlier work.
The conditions of series [2]: continuous oral administration, irradiated mice, vs untreated controls; cited from earlier work.
For series [3] the following is noted: long term oral administration; cited from earlier work.
Another series has as its system SOX2^+ cells of the SLG. Put plainly: Pilocarpine treatment of mice, SOX2/Ki67 immunostaining of sublingual gland. The format is in vivo, mouse. The following applies: wild-type mice, I.P. 4.5 mg/kg, vs saline. On the procedure:
Adult male C57BL/6 mice (aged between 6 and 8 weeks) were treated with pilocarpine (Sigma-Aldrich, P0472; 0.68 mg/ml in 0.9% sterile saline). Mice were anesthetized using isoflurane and injected I.P. with pilocarpine at a dose of 4.5 mg/kg bodyweight (200 μl), or 0.9% saline as a vehicle control. Mice were euthanized after 18 h and glands processed for immunofluorescent analysis. Whole-mount salivary gland and tissue section immunofluorescence analysis has been previously described (Knox et al., 2010). In brief, tissue was fixed with either ice-cold acetone/methanol (1:1) for 1 min or 4% PFA for 20-30 min followed by permeabilizing with 0.1-0.3% Triton X. Tissue was blocked overnight at 4° C. with 10% Donkey Serum (Jackson Laboratories, ME), 1% BSA (Sigma-Aldrich), and MOM IgG-blocking reagent (Vector Laboratories, CA) in 0.01% PBS-Tween 20. […] Antibodies were detected using Cy2-, Cy3-, or Cy5-conjugated secondary Fab fragment antibodies (Jackson Laboratories) and nuclei stained using Hoechst 33342 (1:1,000, Sigma-Aldrich). Fluorescence was analyzed using a Leica Sp5 confocal microscope and NIH ImageJ software. For immunofluorescent analyses (e.g., FIG. 2D), cells positively stained for markers were counted using ImageJ. Acinar cell size was measured using ImageJ. […]

With `CC[C@@H]1C(=O)OC[C@@H]1Cc1cncn1C` [pilocarpine], in series [1], the salivary gland function entry is “improves salivary gland function”. In series [2], the salivary flow result is reported as “promoted salivary flow”. Further, the tumorigenicity result in series [3] is “not shown to be tumorigenic”. In addition, the “percentage of SOX2^+ cells” value in the series with SOX2^+ cells of the SLG (18 h post-injection) is reported as “not significantly changed”. Moreover, in the series with SOX2^+ cells of the SLG (sacrificed at 18 h), the “percentage of proliferating SOX2^+ cells (SOX2^+Ki67^+ cells)” value is on record as “increased”.
